Literature values as cited in patent US11167277B2, “Cu(I)-catalyzed azide-alkyne cycloadditions (CuAAC) ligands and methods for carrying out Cu(I)-catalyzed azide-alkyne cycloaddition reactions” (UNIVERSITY OF PITTSBURGH-OF THE COMMONWEALTH SYSTEM OF …, priority 2014, dated 2021).

System: Zebrafish embryos
Conditions: co-treatment with 1 mM CuSO4, 1.5 mM sodium ascorbate and 0.1 mM TBTA; toxicity attributed to copper(I)

## c1ccc(Cn2cc(CN(Cc3cn(Cc4ccccc4)nn3)Cc3cn(Cc4ccccc4)nn3)nn2)cc1 [TBTA]
  time beyond which Zebrafish embryos do not survive: ≤ 15 min
